Tested on: not listed separately
Assay: Area under curve (0-24 hr) upon oral administration of 10 mg/kg of dose in a dosing vehicle of 10/10/80 cremaphor/DMSO/water
Assay type: ADME, organism-based
Set-up: time < 24 hr, dose 10 mg/kg, route oral
Conditions: in vivo

For `CCCN(CC1CC1)C(=O)c1c(CC)nc2n1CCN2c1c(C)cc(C)cc1C`, which AUC(0-t) at 24 h is on record?
Its AUC(0-t) at 24 h is 1520 ng·h/mL.

Target: T1, Corticotropin-releasing factor receptor 1 (Homo sapiens, UniProt P34998)
T1 sequence (P34998 whole entry): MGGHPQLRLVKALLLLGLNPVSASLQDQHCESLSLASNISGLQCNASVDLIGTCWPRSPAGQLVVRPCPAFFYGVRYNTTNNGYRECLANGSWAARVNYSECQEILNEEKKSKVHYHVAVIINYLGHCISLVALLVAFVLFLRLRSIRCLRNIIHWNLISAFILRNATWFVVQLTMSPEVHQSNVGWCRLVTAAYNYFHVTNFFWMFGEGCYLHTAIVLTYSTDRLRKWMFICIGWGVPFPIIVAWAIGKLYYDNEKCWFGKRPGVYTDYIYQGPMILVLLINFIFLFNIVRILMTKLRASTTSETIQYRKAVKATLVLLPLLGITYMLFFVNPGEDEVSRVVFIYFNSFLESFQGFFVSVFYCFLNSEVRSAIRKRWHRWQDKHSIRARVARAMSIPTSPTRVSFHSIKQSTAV
Assay: Displacement of [125I]-Tyr-o- CRF from human corticotropin releasing factor receptor 1 expressed in IMR-32 cells
Assay type: cell-based
Conditions: not given

For `CCc1nc2n(c1C(=O)N(CCC(F)(F)F)Cc1ccc(Cl)cc1)CCN2c1c(C)cc(C)cc1C`, which Ki is on record?
The Ki was 270 nM.

For `CCc1nc2n(c1C(=O)N(CCC(F)(F)F)Cc1ccccc1)CCN2c1c(C)cc(C)cc1C`, which Ki is on record?
Its Ki is 660 nM.

Which Ki does the source give for `CCc1nc2n(c1C(=O)N1CCN(C(C)=O)CC1)CCN2c1c(C)cc(C)cc1C` here?
Its Ki is greater than 10000 nM.

With `CCCN(Cc1ccc(Cl)cc1)C(=O)c1c(CC)nc2n1CCN2c1c(C)cc(C)cc1C` as the compound, how does the Ki read?
Its Ki is 3000 nM.

Which Ki does the source give for `CCc1nc2n(c1C(=O)N1CCNCC1)CCN2c1c(C)cc(C)cc1C` here?
Its Ki is greater than 10000 nM.

With `CCc1nc2n(c1C(=O)N(CC)CCC1CC1)CCN2c1c(C)cc(C)cc1C` as the compound, how does the Ki read?
Its Ki is 610 nM.

Which Ki does the source give for `CCCN(Cc1c(CC)nc2n1CCN2c1c(C)cc(C)cc1C)CC1CC1` here?
Its Ki is 19000 nM.

For `CCc1nc2n(c1C(=O)N(CC1CC1)CC(F)(F)F)CCN2c1c(C)cc(Cl)cc1Cl`, which Ki is on record?
Its Ki is 24 nM.

For `CCc1nc2n(c1C(=O)N(CC1CC1)CC(F)(F)F)CCN2c1c(C)cc(C)cc1Cl`, which Ki is on record?
Its Ki is 41 nM.

Which Ki does the source give for `CCCN(CC1CC1)C(=O)c1c(CC)nc2n1CCN2c1c(C)cc(C)cc1Br` here?
Its Ki is 126 nM.

For `CCc1nc2n(c1C(=O)N(CCC1CC1)CCC(F)(F)F)CCN2c1c(C)cc(C)cc1C`, which Ki is on record?
The Ki was 650 nM.

For `CCc1nc2n(c1C(=O)Nc1ccccc1)CCN2c1c(C)cc(C)cc1C`, which Ki is on record?
Its Ki is greater than 10000 nM.

With `CCCN(Cc1cccc(F)c1)C(=O)c1c(CC)nc2n1CCN2c1c(C)cc(C)cc1C` as the compound, how does the Ki read?
Its Ki is 4200 nM.

For `CCCN(CCC(F)(F)F)C(=O)c1c(CC)nc2n1CCN2c1c(C)cc(C)cc1C`, which Ki is on record?
Its Ki is 220 nM.

Which Ki does the source give for `CCCN(CCc1ccccc1)C(=O)c1c(CC)nc2n1CCN2c1c(C)cc(C)cc1C` here?
The Ki was 220 nM.

For `CCc1nc2n(c1C(=O)N(CC1CC1)CC(F)(F)F)CCN2c1c(C)cc(C)cc1C`, which Ki is on record?
The Ki was 41 nM.

Which Ki does the source give for `CCc1nc2n(c1C(=O)N(CC1CC1)CC1CC1)CCN2c1c(C)cc(C)cc1C` here?
Its Ki is 68 nM.

Which Ki does the source give for `CCc1nc2n(c1C(=O)N(CCC(F)(F)F)CC1CC1)CCN2c1c(C)cc(C)cc1C` here?
Its Ki is 73 nM.

With `CCCN(CCC1CC1)C(=O)c1c(CC)nc2n1CCN2c1c(C)cc(C)cc1C` as the compound, how does the Ki read?
The Ki was 770 nM.

With `CCc1nc2n(c1C(=O)N(CC1CC1)CC(F)(F)C(F)(F)F)CCN2c1c(C)cc(C)cc1C` as the compound, how does the Ki read?
Its Ki is 63 nM.

For `CCCCN(CC)C(=O)c1c(CC)nc2n1CCN2c1c(C)cc(C)cc1C`, which Ki is on record?
The Ki was 290 nM.

For `CCCN(CC1CC1)C(=O)c1c(C)nc2n1CCN2c1c(C)cc(C)cc1C`, which Ki is on record?
The Ki was 220 nM.

For `CCc1nc2n(c1C(=O)N1CCN(c3ccccc3F)CC1)CCN2c1c(C)cc(C)cc1C`, which Ki is on record?
The Ki was greater than 10000 nM.

With `CCCN(Cc1ccccc1)C(=O)c1c(CC)nc2n1CCN2c1c(C)cc(C)cc1C` as the compound, how does the Ki read?
Its Ki is 4100 nM.

With `CCCN(CC1CC1)C(=O)c1c(CC)nc2n1CCN2c1c(C)cc(C)cc1C` as the compound, how does the Ki read?
The Ki was 42 nM.

Which Ki does the source give for `C=CCN(CC=C)C(=O)c1c(CC)nc2n1CCN2c1c(C)cc(C)cc1C` here?
The Ki was 3000 nM.

With `CCCN(CCC)C(=O)c1c(CC)nc2n1CCN2c1c(C)cc(C)cc1C` as the compound, how does the Ki read?
Its Ki is 100 nM.

Which Ki does the source give for `CCc1nc2n(c1C(=O)N(CC1CC1)CC(F)(F)F)CCN2c1ccc(C(C)C)cc1Br` here?
Its Ki is 270 nM.

For `CCc1nc2n(c1C(=O)N(Cc1ccccc1)Cc1ccccc1)CCN2c1c(C)cc(C)cc1C`, which Ki is on record?
Its Ki is greater than 10000 nM.

For `CCCN(CC1CC1)C(=O)c1c(CC)nc2n1CCN2c1ccc(C(C)C)cc1Br`, which Ki is on record?
The Ki was 1560 nM.

With `CCCN(CC1CC1)C(=O)c1c(CC)nc2n1CCN2c1c(C)cc(C)cc1Cl` as the compound, how does the Ki read?
Its Ki is 94 nM.

Which Ki does the source give for `CCc1nc2n(c1C(=O)N(CC)CC1CC1)CCN2c1c(C)cc(C)cc1C` here?
Its Ki is 94 nM.

For `C=CCN(CCC)C(=O)c1c(CC)nc2n1CCN2c1c(C)cc(C)cc1C`, which Ki is on record?
Its Ki is 740 nM.

Which Ki does the source give for `CCCN(CC1CC1)C(=O)c1c(CC)nc2n1CCN2c1c(C)cc(Cl)cc1Cl` here?
Its Ki is 75 nM.

Which Ki does the source give for `CCCN(CC(F)(F)F)C(=O)c1c(CC)nc2n1CCN2c1c(C)cc(C)cc1C` here?
Its Ki is 61 nM.

For `CCc1nc2n(c1C(=O)N(CC)CCN(C)C)CCN2c1c(C)cc(C)cc1C`, which Ki is on record?
Its Ki is greater than 10000 nM.

Which Ki does the source give for `CCc1nc2n(c1C(=O)N(CC1CC1)CC(F)(F)F)CCN2c1c(C)cc(C)cc1Br` here?
Its Ki is 26 nM.

Which Ki does the source give for `CCCN(Cc1c(C)nc2n1CCN2c1c(C)cc(C)cc1C)CC1CC1` here?
The Ki was 6600 nM.

Tested on: not listed separately
Assay: Maximum concentration upon oral administration of 10 mg/kg of dose in a dosing vehicle of 10/10/80 cremaphor/DMSO/water
Assay type: ADME, organism-based
Set-up: dose 10 mg/kg, route oral
Conditions: in vivo

With `CCCN(CC1CC1)C(=O)c1c(CC)nc2n1CCN2c1c(C)cc(C)cc1C` as the compound, how does the Cmax read?
Its Cmax is 250 ng/mL.

Tested on: not listed separately
Assay: Clearance upon intravenous administration of 2 mg/kg of dose in a dosing vehicle of 10/10/80 cremaphor/DMSO/water
Assay type: ADME, organism-based
Set-up: dose 2 mg/kg, route intravenous
Conditions: in vivo

With `CCCN(CC1CC1)C(=O)c1c(CC)nc2n1CCN2c1c(C)cc(C)cc1C` as the compound, how does the clearance read?
The clearance was 35 mL/min/kg.

Tested on: not listed separately
Assay: Volume of distribution upon intravenous administration of 2 mg/kg of dose in a dosing vehicle of 10/10/80 cremaphor/DMSO/water
Assay type: ADME, organism-based
Set-up: dose 2 mg/kg, route intravenous
Conditions: in vivo

Which Vd does the source give for `CCCN(CC1CC1)C(=O)c1c(CC)nc2n1CCN2c1c(C)cc(C)cc1C` here?
The Vd was 5.7 L/kg.

Tested on: not listed separately
Assay: Brain to plasma (2 hours) concentration ratio upon intravenous administration of 2 mg/kg of dose in a dosing vehicle of 10/10/80 cremaphor/DMSO/water
Assay type: ADME, organism-based
Set-up: dose 2 mg/kg, route intravenous
Conditions: brain and plasma, read-out: B/P

For `CCCN(CC1CC1)C(=O)c1c(CC)nc2n1CCN2c1c(C)cc(C)cc1C`, which Kp at 2 h is on record?
Its Kp at 2 h is 0.21.

Tested on: not listed separately
Assay: Maximum time to reach peak concentration upon oral administration of 10 mg/kg of dose in a dosing vehicle of 10/10/80 cremaphor/DMSO/water
Assay type: ADME, organism-based
Set-up: dose 10 mg/kg, route oral
Conditions: in vivo

Which Tmax does the source give for `CCCN(CC1CC1)C(=O)c1c(CC)nc2n1CCN2c1c(C)cc(C)cc1C` here?
Its Tmax is 4 h.

Tested on: not listed separately
Assay: Bioavailability upon oral administration of 10 mg/kg of dose in a dosing vehicle of 10/10/80 cremaphor/DMSO/water
Assay type: ADME, organism-based
Conditions: eutheria, in vivo

Which bioavailability does the source give for `CCCN(CC1CC1)C(=O)c1c(CC)nc2n1CCN2c1c(C)cc(C)cc1C` here?
The bioavailability was 32%.

From ChEMBL document CHEMBL1142795, “Synthesis, structure-activity relationships, and anxiolytic activity of 7-aryl-6,7-dihydroimidazoimidazole corticotropin-releasing factor 1 receptor antagonists” (Bioorg Med Chem Lett, 2005)
